According to patent US20250302817A1, “METHODS FOR TREATING PTEN-MUTANT TUMORS” (Icahn School of Medicine at Mount Sinai, priority 2016, published 2025):

Tests used:
Pten^−/− and WT MEFs [1] = assay: Drug response assay (GI50 dose titration) in Pten WT and KO MEFs; type: cell-based, mouse; conditions: for differential sensitivity of Pten^−/− versus WT MEFs: GI50 dose titration (FIG. 8, E-F)
Description: (§1) FIG. 2F is a graph comparing various human breast cancer cell line growth rates. FIG. 2G is a series of immunoblots of pAKT in nuclear fractions of Pten^−/− and Pik3ca mutant MEFs. […] Data shown as mean+SD.
(§2) 1500 cells per well (mouse cells) or 3000 cells per well (human cells) were plated in 96-well plates (Corning 720089). Growth rates were determined using the phase-confluency readings on an IncuCyte ZOOM (Essen Biosciences) on live cells over time.
(§3) Cells were plated in 96-well plates at a density of 1500 or 3000 cells per well. […] Sensitivity was determined by a dose-response titration for each cell line, with an equivalent amount of DMSO in each well. For cell death assays, DRAQ7™ (Cell Signaling 7406S) was added to the media at a 1:200 dilution and red fluorescence was measured in addition to phase in live-cell imaging to measure accumulation of dead cells. An IncuCyte ZOOM was used.

Pten^−/− and WT MEFs [2] = assay: Growth of Pten WT and KO MEFs with glutaminase inhibitor (proliferation assay); type: cell-based, mouse; conditions: 12.5 nM CB-839 (FIG. 1F)
Description: FIG. 1A is a graph comparing the growth of Pten wild-type (WT) and KO MEFs (one-way ANOVA, *p<0.0001, n=3). FIG. 1B is a series of representative confocal microscopy photographs showing MEFs labeled with EdU. FIG. 1C is a graph showing a quantitative depiction of the photographs in FIG. 1B (Student's t-test, *p<0.05, n=6). FIG. 1D is a graph showing a quantitative depiction of the mean fluorescence intensity of MEFs labeled with EdU; cells were analyzed by flow cytometry (Student's t-test, *p<0.01, n=3). FIG. 1E is a series of representative photographs showing Pten WT and KO MEFs in media containing full glutamine ([…]) or no added glutamine (one-way ANOVA, *p<0.0001, n=3). […] FIG. 1G is a graph comparing the relative metabolite concentrations of DNA nucleotide precursors in Pten WT and KO MEFs (dGMP was unable to be measured so dGTP was used instead) (Student's t-test, *p<0.05, n=3). […] Data were also analyzed with IMPaLA: ^13C glutamine-derived pyrimidine metabolism enrichment in PTEN^−/− MEFs q-value=3.92×10^−09. […]
1500 cells per well (mouse cells) or 3000 cells per well (human cells) were plated in 96-well plates (Corning 720089). Growth rates were determined using the phase-confluency readings on an IncuCyte ZOOM (Essen Biosciences) on live cells over time. […]

[3] = system: MCCL-357 (Myc, Pten^−/−), CaP8 (PTEN^−/−), MCCL-278 (Myc, Pik3ca H1047R) and Myc-CaP (Myc); assay: Drug response assay (GI50) in mouse cancer lines; type: cell-based; conditions: Myc-CaP prostate cells (FIG. 7D)
Source text: as §1
(§4) FIG. 7C, FIG. 7D, and FIG. 7E are series of bar graphs depicting the GI50s of cells treated with dose titrations of DHODH inhibitors as indicated (Student's t-test, *p-values as reported on the figures, n=3). […] FIG. 7G depicts the confluence of MCCL-278 and MCCL-357 breast cells. FIG. 7H depicts the confluence of Myc-CaP and CaP8 prostate cells. FIG. 7I is an immunoblot of pAKT in MCCL-278 and MCCL-357 breast cells. FIG. 7J is an immunoblot of pAKT in nuclear fractions of MCCL-278 and MCCL-357 breast cells. Data shown as means±SD.
as §3

[4] = system: human breast, mouse breast, or mouse prostate tumor cell lines; assay: Proliferation rates of tumor cell lines versus leflunomide sensitivity; type: cell-based
Source text: as §1, §4, §2

[5] = in vivo; cited from earlier work
gamma-H2AX = assay: Gamma-H2AX measurement of DNA damage by flow cytometry; type: cell-based; conditions: 100 μM leflunomide 48 h or A771726
Description: (§5) FIG. 4A is a graph showing positively-stained cells labeled with a gamma-H2AX antibody; cells were analyzed by flow cytometry (Student's t-test, *p<0.05, n=3). […] The mean fluorescence intensity (MFI) was determined using flow cytometry (Student's t-test, *p<0.01, n=3). FIG. 4C is a series of representative photographs showing MEFs treated with 150 μM A771726 for 24 h and labeled with EdU and gamma-H2AX. Left: representative confocal microscopy images. Right: quantified EdU and gamma-H2AX colocalized foci (Student's t-test, *p<0.05, n=3). […] Left: representative confocal microscopy images. Right: quantification of the number of foci per cell (Student's t-test, p>0.05, n=6). FIG. 4E is a graph showing the percentage of cells treated with 150 μM A771726 for times indicated and labeled with antibodies to RPA and gamma-H2AX positively staining for RPA alone or both RPA and gamma-H2AX; cells were analyzed by flow cytometry (Student's t-test, *p<0.05, n=4). […] FIGS. 4G and 4H are graphs quantifying the number of chromosomal breaks and multiradial formations per haploid genome (Student's t-test, *p-values on figure, cells scored/replicate>100). […]
(§6) FIG. 10D is a bar graph showing a quantitative depiction of the percent cell area with EdU-staining from images in FIG. 4D, used to normalize foci to cell size (Student's t-test, p>0.05, not significant, n=6). […]

[6] = system: Pten^−/− MEFs, PTEN-mutant human breast cancer cell lines, and Pten^−/− mouse breast lines; assay: Cell death accumulation by live-cell imaging with DRAQ7; type: cell-based; conditions: 100 uM leflunomide and DRAQ7, 6 h intervals; PTEN-deficient versus WT cells
Source text: as §1, §4, §3

[7] = system: SUM149 and MDA-MB 468 xenografts; assay: PTEN-mutant triple-negative breast cancer xenografts; type: in vivo, nu/nu mice
Description: FIG. 3B is a graph showing the tumor volume of PTEN-mutant triple-negative breast cancer cell line SUM149 xenografts. […] FIG. 3C is a graph showing the relative luminescence of PTEN-mutant triple-negative breast cancer cell line MDA-MB 468 xenografts expressing luciferase. […] Radiance was measured on days 0, 7, 14, and 21, quantified as photons/second/cm^2/steradian. FIG. 3D: luminescence of treated and control mice after 2 weeks of treatment. Data shown as mean+SD for FIG. 3A and +SEM for FIGS. 3B and 3C.
FIG. 9A is an immunoblot of PTEN in the four patient-derived glioblastomas in FIG. 3A. […] Tumor size was measured by assessing luminescence, quantified by photons/second/cm^2/steradian (n=2). […] Tumor volume was measured by calipers. Growth rate of the tumors was determined by calculating the slope of the tumor growth (Student's t-test, *p<0.01, n=8). Data shown as means±SEM.
6-week old nu/nu mice (Jackson Laboratory, 20-25 g weight each) were engrafted orthotopically with either 5 million SUM149, 5 million MDAMB 468-luciferase, 1 million MCCL-357, or 0.75 million MCCL-278 cells. […] Luminescence was measured on days 0, 7, 14, and 21, quantified as photons/second/cm^2/steradian, and normalized to baseline.

Pten^−/− MEFs = assay: EdU detection of replication forks in MEFs; type: cell-based, mouse; conditions: after 24 h of treatment with leflunomide
Description: as §5, §6

PTEN-deficient cells = assay: Orotate rescue of growth inhibition by leflunomide; type: cell-based; conditions: increasing concentrations of orotate with 25 or 50 μM leflunomide; confluence after 5 days
Source text: as §1
Note that here as well as in FIG. 2, H-I, a large amount of DMSO was used in each condition to match the amount of orotate needed, narrowing the growth differential normally observed between leflunomide-treated and untreated cells in the PTEN mutant setting. FIG. 8B is a bar graph and immunoblot depicting cells transfected with siRNA against DHODH. The bar graph depicts cell viability measured using annexin V and 7AAD. 0.5 μg/mL actinomycin D was a positive control for cell death. (Students t-test, *p<0.05, n=3). […] FIG. 8C is an immunoblot of DHODH in Pten KO and WT cells. FIG. 8D is an immunoblot of pAKT in Pten KO and WT cells with or without treatment with 50 μM A771726. FIG. 8E and FIG. 8F are bar graphs depicting the GI50s of cells treated with dose titrations of 5-fluorouracil or mercaptopurine, respectively (Student's t-test, p>0.05, n=3). FIG. 8G depicts the confluence of prostate cells grown in media containing full glutamine (4 mM) or no added glutamine. Data shown as means±SD.
Orotate (Sigma O2750) was dissolved in DMSO.

## O=c1[nH]cc(F)c(=O)[nH]1 [5-flurouracil, 5-fluorouracil]
Pten^−/− and WT MEFs [1]
  differential sensitivity of Pten^−/− versus WT MEFs: did not show a differential sensitivity

## O=C(Cc1cccc(OC(F)(F)F)c1)Nc1ccc(CCCCc2nnc(NC(=O)Cc3ccccn3)s2)nn1 [CB-839]
Pten^−/− and WT MEFs [2]
  growth difference between Pten^−/− and WT MEFs: sufficient to collapse the growth difference

## Cc1c(-c2ccc(-c3ccccc3F)cc2)nc2ccc(F)cc2c1C(=O)O [brequinar]
Pten^−/− and WT MEFs [1]; GI50 dose titration (FIG. 2A)
  sensitivity of Pten^−/− MEFs compared with WT MEFs: more sensitive

## Cc1oncc1C(=O)Nc1ccc(C(F)(F)F)cc1 [leflunomide]
[3]
  sensitivity of Myc-CaP cells: resistant
[4]
  association of sensitivity with proliferation rates of tumor cell lines: not associated with the proliferation rates
[5]
  half-life: ~2 weeks
gamma-H2AX
  DNA damage (gamma-H2AX) in PTEN-deficient versus WT cells: augmented DNA damage to a significantly greater degree in PTEN-deficient cells
[6]
  accumulation of dead cells over time: increased accumulation of dead cells over time
[7]; 100 mg/kg oral leflunomide, two PTEN-mutant triple-negative breast cancer xenografts
  tumor growth upon treatment: slowed or regressed
[7]; MDA-MB 468 xenografts grown seven weeks untreated, then 100 mg/kg leflunomide for 1 week
  response of very large tumors (4×10^7 photons): regressed after only 1 week of treatment
Pten^−/− MEFs
  number of replication forks in Pten^−/− MEFs after treatment: remained intact

## S=c1nc[nH]c2nc[nH]c12 [mercaptopurine]
Pten^−/− and WT MEFs [1]
  differential sensitivity of Pten^−/− versus WT MEFs: did not show a differential sensitivity

## O=C(O)c1cc(=O)[nH]c(=O)[nH]1 [orotate]
PTEN-deficient cells
  rescue of growth inhibition by leflunomide: rescued growth inhibition by leflunomide in a dose-dependent manner
